According to patent US6762052B1, “DNA sequence encoding flavin-containing monooxygenase” (priority 1993, dated 2004):
Substitutions are numbered along the chain they refer to. Where two headings read alike, the source gives them in different places.

Tests used:
[1] = biological target: T1, adult human liver flavin-containing monooxygenase (form 3) (Homo sapiens, UniProt P31513, E158K); experiment: N- and S-oxygenation by cDNA-expressed HLFMO 3 (solubilized protein from E. coli transformed with pTrcHLFMO 3), HPLC; settings: for Vmax, Expressed HLFMO / Km: N- or S-oxide formation, for the 4-bromophenyl-1,3-oxathiolanes formation of the trans S-oxide; for Km: read-out: Km, Expressed HLFMO
T1 sequence (P31513 1-532 E158K): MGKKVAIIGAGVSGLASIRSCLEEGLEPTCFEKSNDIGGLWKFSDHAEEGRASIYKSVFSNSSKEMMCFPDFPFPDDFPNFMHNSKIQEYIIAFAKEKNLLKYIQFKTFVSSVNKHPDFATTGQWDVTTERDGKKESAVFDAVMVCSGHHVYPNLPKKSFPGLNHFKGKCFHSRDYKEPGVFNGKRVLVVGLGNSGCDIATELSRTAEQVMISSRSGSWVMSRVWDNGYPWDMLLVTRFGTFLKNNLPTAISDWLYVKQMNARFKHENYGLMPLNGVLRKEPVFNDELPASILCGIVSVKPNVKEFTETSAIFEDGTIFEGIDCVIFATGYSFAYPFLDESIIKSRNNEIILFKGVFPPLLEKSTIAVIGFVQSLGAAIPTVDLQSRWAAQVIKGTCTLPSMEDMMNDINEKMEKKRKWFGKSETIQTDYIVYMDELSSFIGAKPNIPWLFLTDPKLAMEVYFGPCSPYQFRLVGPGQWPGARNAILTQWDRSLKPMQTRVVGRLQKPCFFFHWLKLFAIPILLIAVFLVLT
Procedure: (§1) In all cases examined, product formation was directly determined by HPLC analysis of organic extracts.
Competent NM522 Escherichia coli cells were transformed with the pTrc HLFMO 3 plasmid. […] After inoculation with a fresh overnight culture of NM522 containing pTrcHLFMO 3, the culture was grown at 37° C. until Abs600 was approximately 0.5 absorbance units. Finally, IPTG (0.8 mM) was added to the culture to induce expression of protein and the culture was left to grow overnight at 37° C.
The bacterial pellet was resuspended in 5 volumes of 50 mM potassium phosphate buffer (pH 8.4) containing 1% Triton X-100, 0.1% L-, α-phosphatidylcholine (L-α-lecithin) from egg yolk, 500 μM PMSF, and 1 mM EDTA. The mixture was sonicated and then centrifuged to remove cellular debris. As a control, bacterial lysate extracts from IPTG-induced pTrc99A-transformed NM522 cells (i.e., pTrc99A without the HLFMO 3 cDNA insert) were prepared under the same conditions.
(§2) Human liver samples were obtained from the Department of Surgery (UCSF) and with a protocol from the Medical College of Wisconsin (S. Wrighton).
(§3) A typical incubation mixture (final volume 0.25 ml) contained hepatic microsomes (0.4 mg of protein) or bacterial lysate (2.3 mg of protein), NADP^+ (0.5 mM), glucose-6-phosphate (2.0 mM), glucose-6-phosphate dehydrogenase (1 IU), DETAPAC (0.8 mM) and potassium phosphate buffer (50 mM, pH 8.4). Reactions were initiated by the addition of substrate and terminated at designated times by the addition of three volumes of cold dichloromethane, mixed thoroughly and centrifuged to separate the aqueous and organic fractions. N- and S-oxide metabolic products in the resulting organic extracts were separated and quantified by HPLC. […] Thiobenzamide and thiobenzamide S-oxide were quantified with this same, HPLC system employing a mobile phase of methanol/acetonitrile/60% perchloric acid (20:80:0.016, v/v) which gave retention volumes of 2.7 and 7.0 ml, respectively. […] The major metabolites formed in the incubations were also subjected to mass spectral analysis after extraction of isolated HPLC fractions.
(§4) RPLC of the S-oxide diastereomers with a Chiracel OT chiral analytical column (25 cm×0.15 cm inner diameter, Daicel Chemical Co., New York, N.Y.) was accomplished with a Beckman system, Kratos UV detector (240 nm) and a Hewlett Packard Integrator. […] Quantification was accomplished by comparing integrated HPLC peak areas after taking into account the difference in the extinction coefficients at 240 nm. Likewise, the cis and trans S-oxide diasteromers of (+)- and (−)-2-methyl-1,-benzodithiole were separated with a Chiracel OT chiral analytical column.

[2] = tested on: Human Liver Microsomes; experiment: in vitro
Procedure: as §1, §2, §3, §4

[3] = biological target: T2, glu158-HFMO3-MBP (Homo sapiens, UniProt P31513); experiment: Substrate oxygenation by glu158-HFMO3-MBP fusion protein, HPLC; settings: human, 15 min, 200 µM, pH 9
T2 sequence (P31513 2-532): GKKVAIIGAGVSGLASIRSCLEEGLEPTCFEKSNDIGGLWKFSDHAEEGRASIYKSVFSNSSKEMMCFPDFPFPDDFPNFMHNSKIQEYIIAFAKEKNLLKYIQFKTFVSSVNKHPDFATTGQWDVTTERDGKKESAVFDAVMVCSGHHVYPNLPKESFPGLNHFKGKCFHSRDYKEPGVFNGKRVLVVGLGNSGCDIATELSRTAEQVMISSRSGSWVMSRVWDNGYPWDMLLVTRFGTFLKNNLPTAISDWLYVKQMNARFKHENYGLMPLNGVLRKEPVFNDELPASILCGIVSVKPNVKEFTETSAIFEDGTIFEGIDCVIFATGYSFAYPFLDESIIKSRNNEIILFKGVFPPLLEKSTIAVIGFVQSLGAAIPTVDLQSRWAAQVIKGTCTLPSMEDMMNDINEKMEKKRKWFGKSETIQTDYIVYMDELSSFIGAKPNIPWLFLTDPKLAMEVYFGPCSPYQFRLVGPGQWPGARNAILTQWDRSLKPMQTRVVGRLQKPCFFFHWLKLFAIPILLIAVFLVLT
Procedure: (§5) For HFMO3-MBP assay, all HFMO3-MBP incubations were done as follows: Into a test tube was added DETAPAC (1.2 mM, final concentration for a 250 μl reaction) followed by the addition of 60 μl NADPH generating system (0.4 mM NADP, 0.4 mM glucose-6-phosphate, and 20 μl of a 50 units mI^−1 glucose-6-phosphate dehydrogenase). The tube was chilled on ice and buffer and enzyme were added as described below for individual experiments to give a volume of 240 μl. The incubation was initiated by the addition of 5-DTP (10 μl of 5 mM) and placed in a shaking water bath at 37° C. for 10 min (unless specified otherwise). The incubation was stopped by the addition of 1.0 ml of ice-cold CH2Cl2. Following the addition of sodium carbonate (approx. 20 mg), the culture tube was vortexed, centrifuged (2000×g, 10 min), and the organic layer was removed and transferred to a 1.5 ml microfuge tube. The organic solvent was evaporated under a stream of Ar(g) to dryness and the residue was taken up in MeOH (300 μl) for determination HPLC analysis.
(§6) Data was analyzed with a Hitachi D-2500 integrator.
(§7) MTS-oxygenation assays were carried out under the same buffer, temperature, time and volume conditions, as for the N-oxygenation assays. The reactions were initiated upon addition of 10 μl of a 5 mM solution of MTS. The reaction was quenched with the addition of 700 μl of 80% CH3CN:20% hexane then 20 mg NaCl(s) and vortexed vigorously for 10 sec. The quenched reactions were then centrifuged briefly to separate the phases. The organic layer, containing product and substrate, was removed and used directly for HPLC analysis.
(§8) All other instruments used were the same as above for the N-oxygenation reactions. Conditions for elution were 50% CH3CN/H2O (v:v) with a flow rate gradient as follows: 1.5 ml min^−1 from 0 to 4 min., 1.5-2.5 ml min^−1 from 4 to 5 min, 2.5 ml min^−1 from 5 to 15 min.
Trimethylamine is commonly ingested in foodstuffs or it is available in the diet of humans from choline and other sources. Trimethylamine (TMA) is exclusively eliminated in humans by metabolism to trimethylamine N-oxide (TMANO). […]

[4] = biological target: T3, lys158-HFMO3-MBP (Homo sapiens, UniProt P31513, E158K); experiment: Substrate oxygenation by lys158-HFMO3-MBP fusion protein, HPLC; settings: human, 15 min, 200 µM, pH 9
T3 sequence (P31513 2-532 E158K): T2 sequence (P31513 2-532) with E157K
Procedure: as §5, §6, §7, §8
Trimethylamine is commonly ingested in foodstuffs or it is available in the diet of humans from choline and other sources. Trimethylamine (TMA) is exclusively eliminated in humans by metabolism to trimethylamine N-oxide (TMANO). […] Thus, urinary TMANO formation provides a simple, reliable and direct assay of FMO3 activity in adult humans. Analysis of TMA to TMANO ratios provides a direct means of phenotyping adult humans for FMO3 activity. Phenotyping FMO3 activity in humans would provide a simple means of evaluating the relationship between the presence of FMO3 and various disease conditions. […]

## 4-bromophenyl-1,3-oxathiolane
[1]; in the presence of microsomes and expressed HLFMO 3
  pH of maximum S-oxygenase activity: ~8.5

## CC1Sc2ccccc2S1 [2-Methyl-1,3-Benzodithiole, 2-Methyl-1,3-benzodithiole]
[2]; human, 0.5 mM, pH 8.4
  S-oxide product cis (+)-(1R,2S), % Diastereomer: 28.2%
  S-oxide product cis (+)-(1R,2S), amount formed: 176 ± 34 pmol/min/mg of protein
  S-oxide product cis (-)-(1S,2R), % Diastereomer: 12.3%
  S-oxide product cis (-)-(1S,2R), amount formed: 77 ± 27 pmol/min/mg of protein
  S-oxide product trans (+)-(1R,2R), % Diastereomer: 59.5%
  S-oxide product trans (+)-(1R,2R), amount formed: 372 ± 35 pmol/min/mg of protein
[1]; human, 0.5 mM, pH 8.4
  S-oxide product cis (+)-(1R,2S), % Diastereomer: 48.6%
  S-oxide product cis (+)-(1R,2S), amount formed: 54 ± 22 pmol/min/mg of protein
  S-oxide product cis (-)-(1S,2R), % Diastereomer: 19.8%
  S-oxide product cis (-)-(1S,2R), amount formed: 22 ± 2 pmol/min/mg of protein
  S-oxide product trans (+)-(1R,2R), % Diastereomer: 31.5%
  S-oxide product trans (+)-(1R,2R), amount formed: 35 ± 27 pmol/min/mg of protein

## CN(C)CCCN1c2ccccc2Sc2ccc(Cl)cc21 [Chlorpromazine, chlorpromazine]
[2]; human, 0.1 mM, pH 8.4
  N-oxide formation, Human Liver Microsomes: 58.9 ± 7.4 pmol/min/mg of protein
  S-oxide formation, Human Liver Microsomes: 29.3 ± 3.7 pmol/min/mg of protein
[1]
  substrate activity for human liver microsomes and expressed HLFMO 3, in words: detectable
[1]; human, 0.1 mM, pH 8.4
  N-oxide formation, Expressed HFLMO: 10.2 ± 1.2 pmol/min/mg of protein

## CN(C)CCCCCCN1c2ccccc2Sc2ccc(C(F)(F)F)cc21 [Compound 6]
[1]; human liver microsomes and solubilized protein from E. coli transformed with pTrcHLFMO 3
  substrate activity for human liver microsomes and expressed HLFMO 3, in words: better substrates
[1]; microsomal protein and expressed HLFMO 3 gave virtually identical pH-rate profiles
  pH-optimum for tertiary amine N-oxygenation: approximately 10
[1]; microsomes and expressed HLFMO 3
  midpoint of the pH-rate profile of N-oxygenation: ~9.5

## CSc1ccc(C)cc1 [MTS, methyl p-tolyl sulfide]
[3]
  relative activity towards the sulfide, MTS vs. 5-DTP activity: 20 fold
[4]
  relative activity towards the sulfide, MTS vs. 5-DTP activity: 4.9 fold

## (+)-4-bromophenyl-1,3-oxathiolane
[2]
  Km: 50 µM
  Vmax, Human Liver Microsomes: 2.87 nmol/min/mg of protein
  cis S-oxide formation rate, Human Liver Microsomes: (5.3 ± 0.9) nmol/min/mg of protein
  cis S-oxide, % of S-oxide product, Human Liver Microsomes: 40.4%
  trans S-oxide formation rate, Human Liver Microsomes: 7.8 ± 1.7 nmol/min/mg of protein
  trans S-oxide, % of S-oxide product, Human Liver Microsomes: 59.5%
[1]
  cis S-oxide, % of S-oxide product, Expressed HLFMO: 38.5%
  substrate activity for human liver microsomes and expressed HLFMO 3, in words: excellent substrates
  trans S-oxide formation rate, Expressed HLFMO: 0.8 ± 0.2 nmol/min/mg of protein
  trans S-oxide, % of S-oxide product, Expressed HLFMO: 61.4%
  Vmax, Expressed HLFMO: 0.180 nmol/min/mg of protein
  Km: 142 µM

## (−)-4-bromophenyl-1,3-oxathiolane [(-)-4-Bromophenyl-1,3-oxathiolane]
[2]
  Km: 166 µM
  Vmax, Human Liver Microsomes: 5.2 nmol/min/mg of protein
  trans S-oxide formation rate, Human Liver Microsomes: 2.4 ± 0.9 nmol/min/mg of protein
  trans S-oxide, % of S-oxide product, Human Liver Microsomes: 100%
[1]
  substrate activity for human liver microsomes and expressed HLFMO 3, in words: excellent substrates
  trans S-oxide formation rate, Expressed HLFMO: 0.7 ± 0.1 nmol/min/mg of protein
  trans S-oxide, % of S-oxide product, Expressed HLFMO: 100%
  Vmax, Expressed HLFMO: 2.94 nmol/min/mg of protein
  Km: 311 µM
